# Experimental data: patent US20100197584A1, “USE OF CURCUMIN TO BLOCK BRAIN TUMOR FORMATION IN MICE” (Research Foundations of the City University of- New York, priority 2007, published 2010)
# Columns and labels:
# [1] = system: B16F10 mouse melanoma cells; test: Tumor formation in peripheral tissue (B16F10 cells injected into the neck); assay type: in vivo, C57BL mice
# Protocol: Generation of Tumors. C57BL mice were given food and water ad libitum and subjected to 12 hour dark/12 hour light cycles. To generate tumors in the peripheral tissue, B16F10 mouse melanoma cells (10^4 cells in 10 μl PBS) were injected into the necks of male and female C57BL mice. Curcumin Treatment. The control mice received, aseptically, the carrier (3% DMSO in 200 μl PBS) daily through the tail vein after placing the mouse in a restraining cage without anesthetics. Other mice similarly received […] in 200 μl of PBS containing 3% DMSO daily through the tail vein.
# [2] = system: B16F10 cells; test: Intracranial injection of curcumin on brain tumor cells (B16F10); assay type: in vivo, mice; conditions: 5 μl of 3 mM curcumin via cannula every other day
# Description: Each mouse was fitted with a stainless steel guide cannula (Plastic Ones, System C313G, Roanoke, Va., USA) to administer curcumin directly to the brain. Cannulas were implanted into the right frontal cortex at the same coordinates as used earlier for intracerebral injection. The guide cannula was fixed to the skull with dental cement. A removable stylet plugged the guide cannula except during the time of drug injection. B16F10 cells (103) were delivered into mice in two sets on the first day. Starting from the third day, 5 μl of curcumin (3 mM) in PBS containing 15% DMSO were infused through the cannula of one set of mice (three), whereas the other set of mice (three) received 5 μl of PBS containing 15% DMSO (carrier). Considering that the brain volume of an adult mouse is about 400 μl, dispersion of this solution would give a final concentration of 37.5 μM curcumin and 0.187% DMSO in the brain. This infusion was started on the third day and then performed every other day, until day 19. The brains of the treated mice were removed and soaked (fixed) in 4% paraformaldehyde.
# [3] = system: B16F10 (mouse melanoma) cells; test: Caspase-3/7 assay in B16F10 cells; assay type: cell-based; conditions: 20 μM and 50 μM, 48 h or 96 h (FIG. 1)
# Protocol: (§1) Cells. B16F10 (mouse melanoma), GL261 (mouse glioma), HOG (human oligodendroglioma), A549 (human lung cancer), and […] (mouse neuroblastoma) cells were cultured separately in DMEM containing 10% (v/v) fetal bovine serum and 1% (v/v) penicillin-streptomycin (PS) and allowed to grow to 40% confluence in a 96-well plate. Curcumin Treatment. Two hours before drug treatment, the medium in each well was replaced with 200 μl Neurobasal medium supplemented with 2% (v/v) B27 and 1% (v/v) PS (Drug-treatment Medium). A stock solution (40 mM) of curcumin was prepared in sterile dimethyl sulfoxide (DMSO) (Example 1). Through serial dilution of each stock solution in Drug-treatment Medium, the following concentrations were obtained: 20 μM and 50 μM (for caspase 3/7 assays) or 25 μM and 50 μM (for MTT assays). Drug-treatment Medium in each well was aspirated, and a drug solution of each concentration or carrier-containing medium (control) was added to triplicate wells of cells (50 μl/well). […] Additionally, the background absorbance was determined from parallel wells containing only the Drug-treatment Medium plus a particular concentration of the drug (no cells). […] Fluorescence in each well was measured using the FLx 800 plate reader (Bio-Tek Instruments, Winooski, Vt.) set at 485/20 nm excitation and 528/20 nm emission wavelengths and the sensitivity of 70. […]
# [4] = system: ovarian cancer; conditions: orthotopic murine model of ovarian cancer (Lin et al. 2007); cited from earlier work
# [5] = system: BclXL; test: Western blot of B16F10 cells, BclXL; assay type: cell-based, mouse; conditions: 50 μM (FIG. 9)
# Protocol: B16F10 cells were cultured in 10-cm plates and then treated in duplicate with carrier or curcumin (50 μM). Following treatment for appropriate time periods, the cells were washed with PBS, lysed in RIPA buffer (PBS containing 1% Nonidet P40, 0.5% sodium deoxycholate, 0.1% SDS, 0.5 mM Na3VO4 plus freshly added PMSF and protease inhibitor cocktail; Boeringer-Roche), and then 20 μg of lysate protein (per lane) were analyzed by SDS-10% PAGE and Western blot analysis. Antibody concentrations used were: anti-phospho-NF-κB (1:1000) (Santa Cruz Biotechnology, Santa Cruz, Calif.), anti-phospho-Akt (1:5000) (Cell Signaling, CA), anti-cyclin D1 (1:1000) (Cell Signaling, CA), anti-BclXL (1:500) (Santa Cruz Biotechnology), anti-VEGF (1:500) (Santa Cruz Biotechnology), and anti-β-actin (1:1000) (Sigma, St. Louis, Mo.).
# [6] = system: N18 (mouse neuroblastoma) cells; test: Caspase-3/7 assay in N18 cells; assay type: cell-based; conditions: 20 μM and 50 μM, 48 h or 96 h (FIG. 2)
# Protocol: as §1
smiles,measurement,setting,value
COc1cc(/C=C/C(=O)CC(=O)/C=C/c2ccc(O)c(OC)c2)ccc1O [curcumin],condition of mice after treatment,"[1]; even after the curcumin injection had been discontinued for 18 days, carrier mice died in about a month",remained normal indefinitely
same,outward sign of tumor or lesion,"[1]; male and female C57BL mice, B16F10 cells in neck, 667 curcumin in 200 μl PBS 3% DMSO daily, tail vein",no outward sign of tumor or lesion
same,mice with a detectable brain tumor,[2]; day 3 to day 19 (FIG. 11),None
same,behavior,"[2]; day 3 to day 19, carrier mice collapsed day 15-25",normal behavior
same,caspase-3/7 activity,[3],increased
same,tumor growth,[4],reduces tumor growth
same,BclXL (Western blot),[5],suppression
same,caspase-3/7 activity,[6],increased
